Data from ChEMBL document CHEMBL3779837, “Inhibiting the Inflammasome: A Chemical Perspective” (J Med Chem, 2016).
Values belong to the compound of their own block, whether it stands above or below them.

Columns and labels:
Pannexin-1 = Pannexin-1 (Homo sapiens, UniProt Q96RD7); assay: Binding affinity to pannexin 1 channel (unknown origin)
clinical = settings: human, plasma, po, 500 mg
[1] = Inhibition of organic anion transporter (unknown origin); parameters: species or system Homo sapiens
THP-1 = assay: Inhibition of caspase-1-mediated IL-1beta production in LPS/ATP induced human THP1 cells by ELISA analysis; format: functional, cell-based
[2] = target: NACHT, LRR and PYD domains-containing protein 3 (Mus musculus, UniProt Q8R4B8); assay: Inhibition of NLRP3 in LPS stimulated mouse BMDM cells after 15 mins followed by addition of ATP by ELISA analysis; format: cell-based
Caspase-1 = target: T1, Caspase-1 (Homo sapiens, UniProt P29466); assay: Inhibition of caspase-1 in LPS stimulated human PMBC cells after 2 hrs by ELISA analysis; format: cell-based
T1 sequence (P29466 whole entry): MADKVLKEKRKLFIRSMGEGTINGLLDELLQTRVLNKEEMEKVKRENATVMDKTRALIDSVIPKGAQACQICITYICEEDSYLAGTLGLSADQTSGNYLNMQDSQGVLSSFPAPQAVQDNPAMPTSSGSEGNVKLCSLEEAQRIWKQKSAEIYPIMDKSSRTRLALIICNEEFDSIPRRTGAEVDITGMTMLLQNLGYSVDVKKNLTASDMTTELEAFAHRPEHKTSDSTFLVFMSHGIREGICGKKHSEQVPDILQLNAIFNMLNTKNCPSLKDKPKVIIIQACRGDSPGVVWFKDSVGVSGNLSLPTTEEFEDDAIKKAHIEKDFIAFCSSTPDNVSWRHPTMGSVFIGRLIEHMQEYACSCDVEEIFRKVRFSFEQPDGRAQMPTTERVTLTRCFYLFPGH

[3] = Oral bioavailability in single dosed C57BL/6 mouse at 20 mg/kg; format: ADME, organism-based; settings: in vivo
[4] = Half life in C57BL/6 mouse at 3 mg/kg, iv administered as single dose; format: ADME, organism-based; settings: in vivo
Toll-like receptor 4 = target: T2, Toll-like receptor 4 (Mus musculus, UniProt Q9QUK6); assay: Inhibition of TLR4 in LPS/INFgamma stimulated mouse peritoneal macrophages assessed as inhibition of IL1-beta after 20 hrs by ELISA analysis
T2 sequence (Q9QUK6 whole entry): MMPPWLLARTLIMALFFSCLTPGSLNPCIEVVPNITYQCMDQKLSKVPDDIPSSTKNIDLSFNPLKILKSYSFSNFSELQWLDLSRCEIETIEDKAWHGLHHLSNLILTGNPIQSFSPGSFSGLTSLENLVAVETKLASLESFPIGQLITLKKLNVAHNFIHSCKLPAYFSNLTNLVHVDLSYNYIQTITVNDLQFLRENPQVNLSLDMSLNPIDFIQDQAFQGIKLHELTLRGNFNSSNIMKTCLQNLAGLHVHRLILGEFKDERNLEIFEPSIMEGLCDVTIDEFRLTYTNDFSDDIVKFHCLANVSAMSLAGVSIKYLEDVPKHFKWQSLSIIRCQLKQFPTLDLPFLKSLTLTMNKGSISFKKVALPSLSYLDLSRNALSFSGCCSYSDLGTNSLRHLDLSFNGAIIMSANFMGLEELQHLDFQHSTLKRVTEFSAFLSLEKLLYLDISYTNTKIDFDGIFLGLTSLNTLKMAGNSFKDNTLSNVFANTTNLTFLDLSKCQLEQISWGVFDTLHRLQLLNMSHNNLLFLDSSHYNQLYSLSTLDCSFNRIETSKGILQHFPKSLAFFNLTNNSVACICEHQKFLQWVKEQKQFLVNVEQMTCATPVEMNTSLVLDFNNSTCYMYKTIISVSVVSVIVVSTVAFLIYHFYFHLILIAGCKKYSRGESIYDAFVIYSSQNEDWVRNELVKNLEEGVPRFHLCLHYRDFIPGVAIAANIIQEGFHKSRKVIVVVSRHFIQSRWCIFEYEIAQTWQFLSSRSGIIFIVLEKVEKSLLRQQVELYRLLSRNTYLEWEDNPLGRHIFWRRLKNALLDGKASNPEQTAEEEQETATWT

NACHT, LRR and PYD domains-containing protein 3, sequence (Q8R4B8 whole entry, the tested form may be a part): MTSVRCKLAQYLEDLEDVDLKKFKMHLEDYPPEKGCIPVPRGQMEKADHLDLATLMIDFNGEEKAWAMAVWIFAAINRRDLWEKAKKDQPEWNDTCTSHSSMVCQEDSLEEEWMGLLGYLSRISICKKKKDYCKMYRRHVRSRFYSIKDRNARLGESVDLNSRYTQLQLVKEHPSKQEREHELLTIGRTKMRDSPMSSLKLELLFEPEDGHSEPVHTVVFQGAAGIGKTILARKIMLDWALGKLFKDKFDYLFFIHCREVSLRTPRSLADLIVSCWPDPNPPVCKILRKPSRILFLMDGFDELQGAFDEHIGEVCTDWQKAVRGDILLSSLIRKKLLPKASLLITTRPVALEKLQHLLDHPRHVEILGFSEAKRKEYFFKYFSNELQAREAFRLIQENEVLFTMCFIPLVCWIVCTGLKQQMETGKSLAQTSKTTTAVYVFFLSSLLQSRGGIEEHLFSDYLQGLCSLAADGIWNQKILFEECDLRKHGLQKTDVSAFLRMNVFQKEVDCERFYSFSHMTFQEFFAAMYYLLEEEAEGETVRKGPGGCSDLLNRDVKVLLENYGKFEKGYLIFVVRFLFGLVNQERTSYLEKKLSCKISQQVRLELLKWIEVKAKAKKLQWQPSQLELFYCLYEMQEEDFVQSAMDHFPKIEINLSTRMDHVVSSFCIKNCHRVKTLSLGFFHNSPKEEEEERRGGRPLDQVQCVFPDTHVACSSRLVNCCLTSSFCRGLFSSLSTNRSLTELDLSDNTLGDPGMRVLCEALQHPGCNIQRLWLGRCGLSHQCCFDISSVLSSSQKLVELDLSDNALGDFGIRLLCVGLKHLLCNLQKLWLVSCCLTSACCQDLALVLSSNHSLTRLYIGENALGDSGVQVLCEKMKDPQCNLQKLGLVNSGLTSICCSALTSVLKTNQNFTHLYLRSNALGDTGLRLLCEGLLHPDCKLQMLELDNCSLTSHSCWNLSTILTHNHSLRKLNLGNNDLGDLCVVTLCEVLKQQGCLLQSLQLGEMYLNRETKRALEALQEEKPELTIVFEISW
Pannexin-1, sequence (Q96RD7 whole entry): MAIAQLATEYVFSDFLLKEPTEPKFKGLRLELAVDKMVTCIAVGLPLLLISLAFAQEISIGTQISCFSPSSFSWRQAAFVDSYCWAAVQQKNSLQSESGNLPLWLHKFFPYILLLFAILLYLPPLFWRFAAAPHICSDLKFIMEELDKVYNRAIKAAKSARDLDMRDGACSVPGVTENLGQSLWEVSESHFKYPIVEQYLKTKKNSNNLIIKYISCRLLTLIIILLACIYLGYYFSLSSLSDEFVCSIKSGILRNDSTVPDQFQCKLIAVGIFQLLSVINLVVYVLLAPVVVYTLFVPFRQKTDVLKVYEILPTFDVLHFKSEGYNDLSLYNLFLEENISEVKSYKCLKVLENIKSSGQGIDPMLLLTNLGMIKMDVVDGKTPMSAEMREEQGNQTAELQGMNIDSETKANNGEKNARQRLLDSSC

IC50 (THP-1): 170 nM
SMILES: O=C1C(Br)=C[C@H](O)[C@H]2O[C@@H]12

IC50 (THP-1): 190 nM
SMILES: O=C1C(Br)=C[C@@H](O)[C@@H]2O[C@H]12

IC50 (THP-1): 200 nM
SMILES: O=C1C(Br)=C[C@@H](O)[C@H]2O[C@@H]12

IC50 (THP-1): 280 nM
SMILES: O=C1C(Br)=C[C@H](O)[C@@H]2O[C@H]12

The next lines start with the compound.

SMILES: CCCN(CCC)S(=O)(=O)c1ccc(C(=O)O)cc1 [PROBENECID]
IC50 (Pannexin-1): 150000 nM
Cmax at 48 h (clinical): 124 µM
IC50 [1]: < 100000 nM

SMILES: O=[N+]([O-])/C=C/c1ccc2c(c1)OCO2
IC50 [2]: 2000 nM

SMILES: O=C[C@H](CC(=O)O)NC(=O)[C@@H]1CCCN2C(=O)CC[C@H](NC(=O)c3nccc4ccccc34)C(=O)N12 [VRT-18858]
IC50 (Caspase-1): 670 nM

SMILES: CCO[C@@H]1OC(=O)C[C@@H]1NC(=O)[C@@H]1CCCN2C(=O)CC[C@H](NC(=O)c3nccc4ccccc34)C(=O)N12 [PRALNACASAN]
IC50 (Caspase-1): 420 nM

SMILES: CC(C)(O)c1coc(S(=O)(=O)NC(=O)Nc2c3c(cc4c2CCC4)CCC3)c1
bioavailability [3]: 68%
half-life [4]: 3 h

SMILES: CCOC(=O)C1=CCCC[C@H]1S(=O)(=O)Nc1ccc(F)cc1Cl [RESATORVID]
IC50 (Toll-like receptor 4): 5.7 nM
